# From patent publication US11013746B2, “Drug for preventing and/or treating polycystic kidney disease” (OTSUKA PHARMACEUTICAL CO., LTD., priority 2012, dated 2021)
# Test system: pcy mice
# Assay: Effect of tolvaptan and octreotide, alone or combined, on kidney weight of pcy mice (PKD model animals)
# Assay type: in vivo
# Details: male pcy mice, 0.03% tolvaptan in feed and/or octreotide 300 μg/kg × 2/day sc; for kidney weight suppressive effect compared to the pcy control group: 15 weeks of age, Dunnett's test; for Kidney weight (% body weight) Mean ± SE: 15 weeks old at autopsy, treated from 5 to 15 weeks of age, pcy control 8.02 ± 0.66, normal DBA 1.53 ± 0.04
# Protocol: Individual or combined effects of tolvaptan, which is a vasopressin receptor antagonist, and octreotide, which is a somatostatin analogue, against polycystic kidney disease were evaluated using pcy mice, which are PKD model animals.
# The aforementioned pcy mice are adult polycystic kidney disease model mice, and the mode of inheritance is autosomal recessive. […] It has been reported that compared to wild-type mice, pcy mice have increased renal cAMP levels and elevated renal mRNA levels of aquaporin-2 and vasopressin V2 receptor (V2R). For details, see Non-patent Literature (NPL) 1.
# Based on the body weight at 4 weeks of age and the renal volume measured by MRI, the pcy mice (male) were divided into the following four groups (each group: 9 mice):
# (2) a group receiving a feed containing 0.03% tolvaptan;
# (3) a group receiving octreotide (300 μg/kg×2/day sc); and
# (4) a group receiving a feed containing 0.03% tolvaptan, and octreotide (300 μg/kg×2/day sc).
# As normal control mice, DBA/2JJcl mice (5 mice) were used. A 0.03% tolvaptan-containing MF feed was given to the groups receiving tolvaptan. A MF feed not containing tolvaptan was given to the other groups, i.e., the control group and the group receiving octreotide alone. Sandostatin® subcutaneous injection (100 μg/ml) was diluted with physiological saline and subcutaneously injected in an amount of 300 μg/kg/10 ml to the group receiving octreotide twice a day, morning and evening.
# The drug treatment was started from 5 weeks of age, and continued until 15 weeks of age. Urine was collected from each mouse at 14 weeks of age using metabolic cages for 19 hours, and urine volume and urinary albumin excretion were measured.
# The DBA control mice and pcy mice were sacrificed under isoflurane anesthesia at 15 weeks of age to collect their blood, and right and left kidneys. Plasma parameters were measured from the obtained blood, and the weight of right and left kidneys was measured.
molecule,measurement,value
"Cc1ccccc1C(=O)Nc1ccc(C(=O)N2CCCC(O)c3cc(Cl)ccc32)c(C)c1 (stereo not shown) [tolvaptan, 7-chloro-5-hydroxy-1-[2-methyl-4-(2-methylbenzoylamino)benzoyl]-2,3,4,5-tetrahydro-1H-benzoazepine]",kidney weight suppressive effect compared to the pcy control group,did not exhibit significant kidney weight suppressive effects
same,Kidney weight (% body weight) Mean ± SE,7.28 ± 0.84 % body weight
"(−)-D-phenylalanyl-L-cysteinyl-L-phenylalanyl-D-tryptophyl-L-lysyl-L-threonyl-N-[(1R,2R)-2-hydroxy-1-(hydroxymethyl)propyl]-L-cysteinamide cyclic (2-47) disulfide [octreotide]",kidney weight suppressive effect compared to the pcy control group,did not exhibit significant kidney weight suppressive effects
same,Kidney weight (% body weight) Mean ± SE,6.68 ± 0.65 % body weight
